{
  "source": "paper PMC9305358",
  "about": "(The Journal of Biological Chemistry, 2022)",
  "key": {"FITC-casein": {"molecular_target": "FITC-casein", "assay": "fluorescence polarisation"}, "ClpC1-F444S [1]": {"system": "ClpC1-F444S", "format": "biochemical, Mycobacterium tuberculosis"}, "ClpC1-F444S [2]": {"system": "ClpC1-F444S", "format": "biochemical, Mycobacterium tuberculosis", "remark": "listed apart in the source"}, "ClpC1-E288A": {"system": "ClpC1-E288A", "format": "biochemical, Mycobacterium tuberculosis"}, "ClpC1-E626A": {"system": "ClpC1-E626A", "format": "biochemical, Mycobacterium tuberculosis"}, "ClpC1-WT–ClpP1P2 [3]": {"system": "ClpC1-WT–ClpP1P2", "format": "biochemical, Mycobacterium tuberculosis"}, "ClpC1-F444S–ClpP1P2 [4]": {"system": "ClpC1-F444S–ClpP1P2", "format": "biochemical, Mycobacterium tuberculosis"}, "ClpC1-E288A with Sa ClpP": {"system": "ClpC1-E288A with Sa ClpP", "format": "biochemical, Mycobacterium tuberculosis ClpC1; Staphylococcus aureus ClpP"}, "ClpC1-E626A with Sa ClpP": {"system": "ClpC1-E626A with Sa ClpP", "format": "biochemical, Mycobacterium tuberculosis ClpC1; Staphylococcus aureus ClpP"}, "ClpC1-WT–ClpP1P2 [5]": {"system": "ClpC1-WT–ClpP1P2", "format": "biochemical, Mycobacterium tuberculosis", "conditions": "pH 7.5"}, "ClpC1-F444S–ClpP1P2 [6]": {"system": "ClpC1-F444S–ClpP1P2", "format": "biochemical, Mycobacterium tuberculosis", "remark": "listed apart in the source"}, "ClpC1-WT–P1P2": {"system": "ClpC1-WT–P1P2", "format": "biochemical, Mycobacterium tuberculosis"}, "ClpC1-F444S–ClpP1P2 [7]": {"system": "ClpC1-F444S–ClpP1P2", "format": "biochemical, Mycobacterium tuberculosis", "remark": "listed apart in the source"}, "ClpC1-WT and ClpP1P2": {"system": "ClpC1-WT and ClpP1P2", "format": "biochemical, Mycobacterium tuberculosis"}, "ClpC1-F444S and ClpP1P2": {"system": "ClpC1-F444S and ClpP1P2", "format": "biochemical, Mycobacterium tuberculosis"}, "ClpC1–Sa ClpP": {"system": "ClpC1–Sa ClpP", "format": "biochemical, Mycobacterium tuberculosis ClpC1; Staphylococcus aureus ClpP"}, "Mtb cells": {"system": "Mtb cells", "conditions": "ref [19], cited from earlier work"}, "NMtb–ClpC": {"system": "NMtb–ClpC", "conditions": "ref [26]; cited from earlier work"}, "Sa ClpC": {"system": "Sa ClpC", "conditions": "ref [26]; cited from earlier work"}},
  "data": [
    {"substance": "ATPase-deficient double Walker B variant ClpC1-E288A-E626A (from UniProt P9WPC9 1-848) (enzyme)", "values": [
      {"measurement": "Kd", "setting": "FITC-casein", "result": 1000, "unit": "nM"}
    ]},
    {"substance": "CyclomarinA [CymA]", "values": [
      {"measurement": "change of mass profile", "setting": "ClpC1-F444S [1]", "result": "No major changes in mass profiles"},
      {"measurement": "change of crosslink pattern / hexamer level", "setting": "ClpC1-F444S [2]", "result": "remained the same"},
      {"measurement": "effect on ATP hydrolysis of ClpC1-E288A", "setting": "ClpC1-E288A", "result": "stimulated ATP hydrolysis of ClpC1-E288A"},
      {"measurement": "effect on ATP hydrolysis of ClpC1-E626A", "setting": "ClpC1-E626A", "result": "but not ClpC1-E626A"},
      {"measurement": "inhibition of ClpC1-WT–ClpP1P2 activity", "setting": "ClpC1-WT–ClpP1P2 [3]", "result": "did not observe strong inhibition"},
      {"measurement": "increase of basal FITC-casein degradation activity", "setting": "ClpC1-WT–ClpP1P2 [3]; pH 7.5", "result": "fourfold"},
      {"measurement": "effect of CymA on FITC-casein degradation by ClpC1-F444S–ClpP1P2", "setting": "ClpC1-F444S–ClpP1P2 [4]", "result": "further enhanced"},
      {"measurement": "effect on FITC-casein degradation", "setting": "ClpC1-E288A with Sa ClpP", "result": "did not enhance FITC-casein degradation"},
      {"measurement": "effect on FITC-casein degradation", "setting": "ClpC1-E626A with Sa ClpP", "result": "did not enhance FITC-casein degradation"},
      {"measurement": "enhancement of GFP-SsrA degradation", "setting": "ClpC1-WT–ClpP1P2 [5]", "result": 1.8, "unit": "fold"},
      {"measurement": "effect of CymA on GFP-SsrA degradation by ClpC1-F444S–ClpP1P2", "setting": "ClpC1-F444S–ClpP1P2 [6]", "result": "slightly reduced"},
      {"measurement": "effect on VapB15 degradation", "setting": "ClpC1-WT–P1P2", "result": "minor inhibition"},
      {"measurement": "effect on VapB15 degradation", "setting": "ClpC1-F444S–ClpP1P2 [7]", "result": "inhibitory effect"},
      {"measurement": "enhancement of FR-L-GFP degradation rate by CymA", "setting": "ClpC1-WT and ClpP1P2", "result": 1.6, "unit": "fold"},
      {"measurement": "reduction of ClpS-dependent FR-L-GFP degradation activity of ClpC1-F444S by CymA", "setting": "ClpC1-F444S and ClpP1P2", "result": 2.3, "unit": "fold"},
      {"measurement": "effect on FITC-casein degradation by ClpC1–Sa ClpP", "setting": "ClpC1–Sa ClpP", "result": "comparable to those determined for ClpC1–ClpP1P2 complexes"},
      {"measurement": "toxicity to Mtb cells", "setting": "Mtb cells; [20], [21], [22]", "result": "highly toxic to Mtb cells"},
      {"measurement": "cellular toxicity in Mtb cells", "setting": "Mtb cells", "result": "severe cellular toxicity"},
      {"measurement": "effect on ATPase and proteolytic activities of NMtb–ClpC", "setting": "NMtb–ClpC", "result": "increases both ATPase and proteolytic activities"},
      {"measurement": "sensitivity of Sa ClpC WT with native NTD to CymA", "setting": "Sa ClpC", "result": "insensitive"}
    ]}
  ]
}
